Measured values reported in US7728019B2, “Biphenylcarboxamides” (priority 2002, dated 2010).

Columns and labels:
[1] = test system: Alternaria solani; assay: Alternaria test (tomato)/protective; format: in vivo; settings: tomato plants, protective; application rate 750 g/ha; evaluation 7 days after inoculation
Procedure: (§1) To produce a suitable preparation of active compound, 1 part by weight of active compound is mixed with the stated amounts of solvent and emulsifier, and the concentrate is diluted with water to the desired concentration.
To test for protective activity, young tomato plants are sprayed with the preparation of active compound at the stated application rate. 1 day after the treatment, the plants are inoculated with a spore suspension of Alternaria solani and then remain at 100% relative atmospheric humidity and 20° C. for 24 hours. The plants then remain at 96% relative atmospheric humidity and a temperature of 20° C.
Evaluation is carried out 7 days after the inoculation. 0% means an efficacy which corresponds to that of the control, whereas an efficacy of 100% means that no infection is observed.

[2] = logP determination by HPLC on reverse-phase column (C 18), acidic range pH 2.3; format: physicochemical; settings: reverse-phase HPLC column (C 18), HPLC, C 18 reverse-phase, 43° C.
Procedure: The logP values given in Table 1 were determined with EEC Directive 79/831 Annex V.A8 by HPLC (High Performance Liquid Chromatography) on a reverse-phase column (C 18). Temperature: 43° C. Mobile phases for the determination in the acidic range (pH 2.3): 0.1% aqueous phosphoric acid, acetonitrile; linear gradient from 10% acetonitrile to 90% acetonitrile. Calibration was carried out using unbranched alkan-2-ones (having 3 to 16 carbon atoms) with known logP values (determination of the logP values by the retention times using linear interpolation between two successive alkanones).

[3] = test system: Botrytis cinerea; assay: Botrytis test (bean)/protective; format: in vivo; settings: 48 h, bean plants, protective, application rate 500 g/ha, evaluation 2 days after inoculation, read-out: Efficacy in %
Procedure: (§2) To produce a suitable preparation of active compound, 1 part by weight of active compound is mixed with the stated amounts of solvents and emulsifier, and the concentrate is diluted with water to the desired concentration.
To test for protective activity, young plants are sprayed with the preparation of active compound at the stated application rate. After the spray coating has dried on, 2 small pieces of agar colonized by Botrytis cinerea are placed onto each leaf. The inoculated plants are placed in a dark chamber at about 20° C. and 100% relative atmospheric humidity.
2 days after the inoculation, the size of the infected areas on the leaves is evaluated. 0% means an efficacy which corresponds to that of the control, whereas an efficacy of 100% means that no infection is observed.

[4] = test system: eggs of the diamond back moth (Plutella xylostella); assay: Plutella test; format: in vivo; settings: active compound concentration 1000 ppm, on synthetic feed
Procedure: To produce a suitable preparation of active compound, 1 part by weight of active compound is mixed with the stated amount of solvent, and the concentrate is diluted with methanol to the desired concentrations.
A stated amount of the preparation of active compound of the desired concentration is pipetted onto a standardized amount of synthetic feed. After the methanol has evaporated, about 200-300 eggs of the diamond back moth (Plutella xylostella) are placed onto the feed.
After the desired period of time, the kill of the eggs in % is determined. 100% means that all animals have been killed; 0% means that none of the animals have been killed.

[5] = test system: Puccinia recondita; assay: Puccinia test (wheat)/protective; format: in vivo; settings: 240 h, wheat plants, protective, application rate 500 g/ha, evaluation 10 days after inoculation, read-out: Efficacy in %
Procedure: as §1
To test for protective activity, young plants are inoculated with a spore suspension of Puccinia recondita in a 0.1% strength aqueous agar solution. After the spray coating has dried on, the plants are sprayed with the preparation of active compound at the stated application rate. The plants remain in an incubation cabin at 20° C. and 100% relative atmospheric humidity for 24 hours.
The plants are then placed in a greenhouse at a temperature of about 20° C. and a relative atmospheric humidity of 80% to promote the development of rust pustules.
(§3) Evaluation is carried out 10 days after the inoculation. 0% means an efficacy which corresponds to that of the control, whereas an efficacy of 100% means that no infection is observed.

[6] = test system: apple scab pathogen Venturia inaequalis; assay: Venturia test (apple)/protective; format: in vivo; settings: apple plants, protective; application rate 100 g/ha; evaluation 10 days after inoculation
Procedure: as §2
To test for protective activity, young plants are sprayed with the preparation of active compound at the stated application rate. After the spray coating has dried on, the plants are inoculated with an aqueous conidia suspension of the apple scab pathogen Venturia inaequalis and then remain in an incubation cabin at about 20° C. and 100% relative atmospheric humidity for 1 day.
The plants are then placed in a greenhouse at about 21° C. and a relative atmospheric humidity of about 90%.
as §3

Row | chromatographic logP [2] | Structure (SMILES) | Efficacy in % [1] | pest or weed control at 500 g/ha [3] | Kill rate in % after 7 d [4] | pest or weed control at 500 g/ha [5] | Efficacy in % [6]
1 | 4.16 | Cc1nc(C(F)(F)F)c(C(=O)Nc2ccccc2-c2ccc(/C=N\OCC3CC3)cc2)s1 [Compound 2] | 90% | 98% | – | – | –
2 | 3.92 | C=CCO/N=C(/C)c1ccc(-c2ccccc2NC(=O)c2sc(C)nc2C(F)F)cc1 [Compound 15] | – | – | 95% | 100% | –
3 | 3.47 | C=CCO/N=C\c1ccc(-c2ccccc2NC(=O)c2c(C)nn(C)c2F)cc1 [Compound 6] | 100% | 98% | – | 100% | 97%
4 | 4.69 | CC1=C(C(=O)Nc2ccccc2-c2ccc(/C(C)=N\OCC3CC3)cc2)SCCO1 [Compound 22] | – | – | 95% | – | –
5 | 3.91 | C=CCO/N=C\c1ccc(-c2ccccc2NC(=O)c2sc(C)nc2C(F)(F)F)cc1 [Compound 5] | 100% | 83% | – | – | 100%
6 | 3.53 | C=CCO/N=C\c1ccc(-c2ccccc2NC(=O)c2cn(C)nc2C(F)(F)F)cc1 [Compound 11] | 100% | – | – | – | –
